Results from ChEMBL document CHEMBL4265987, “Identification of inhibitors of the E. coli chaperone SurA using in silico and in vitro techniques” (Bioorg Med Chem Lett, 2018).
Activity calls are given as the source filed them. The calls are words filed in the database; no cut-off is given here. Peptide text beside a SMILES is read from it.

What was measured:
[1] = target: T1, Chaperone SurA (Escherichia coli (strain K12)) (UniProt P0ABZ6); experiment: Inhibition of rhodamine-WEYIPNV binding to Escherichia coli SurA up to 2 uM by fluorescence anisotropy
T1 sequence (whole entry): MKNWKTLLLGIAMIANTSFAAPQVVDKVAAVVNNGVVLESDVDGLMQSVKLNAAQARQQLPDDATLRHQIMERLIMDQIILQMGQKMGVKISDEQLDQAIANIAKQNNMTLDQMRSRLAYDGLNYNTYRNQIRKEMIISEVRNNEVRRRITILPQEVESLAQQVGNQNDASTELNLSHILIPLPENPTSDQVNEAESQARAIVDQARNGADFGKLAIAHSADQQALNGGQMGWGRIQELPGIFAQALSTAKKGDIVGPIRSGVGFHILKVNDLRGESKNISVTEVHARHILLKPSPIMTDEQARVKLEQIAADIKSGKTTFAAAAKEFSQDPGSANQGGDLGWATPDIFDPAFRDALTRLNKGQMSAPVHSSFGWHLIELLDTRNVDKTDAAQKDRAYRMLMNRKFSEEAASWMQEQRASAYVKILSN

Chaperone SurA [2] = target: T2, Chaperone SurA (Escherichia coli (strain K12), UniProt P0ABZ6); experiment: Inhibition of rhodamine-WEYIPNV binding to Escherichia coli SurA by fluorescence anisotropy
T2 sequence (P0ABZ6 whole entry): T1 sequence (whole entry)

[3] = Binding affinity to Rhodamine-WEYIPNV up to 3 uM by fluorescence anisotropy
[4] = target: T1, Chaperone SurA (Escherichia coli (strain K12)); experiment: Inhibition of rhodamine-WEYIPNV binding to Escherichia coli SurA up to 1.5 uM by fluorescence anisotropy
[5] = target: T1, Chaperone SurA (Escherichia coli (strain K12)); experiment: Inhibition of rhodamine-WEYIPNV binding to Escherichia coli SurA up to 2.5 uM by fluorescence anisotropy
Chaperone SurA [6] = target: T2, Chaperone SurA; experiment: Inhibition of rhodamine-WEYIPNV binding to Escherichia coli SurA in presence of 0.01% Triton-X-100 by fluorescence anisotropy
[7] = target: T1, Chaperone SurA (Escherichia coli (strain K12)); conditions: up to 3 µM
Description: Inhibition of rhodamine-WEYIPNV binding to Escherichia coli SurA up to 3 uM by fluorescence anisotropy

[8] = target: T1, Chaperone SurA (Escherichia coli (strain K12)); experiment: Binding affinity to Escherichia coli SurA at 5 nM by fluorescence anisotropy

Question: With `O=C(OCC1c2ccccc2-c2ccccc21)N1CCC[C@H]1C(=O)n1nnc2ccccc21` as the molecule, how does the inhibition [1] read?
Answer: The inhibition was “inactive”.

Question: For `O=C(N[C@@H](Cc1c[nH]c2ccccc12)C(=O)O)OCC1c2ccccc2-c2ccccc21`, which IC50 (Chaperone SurA [2]) is on record?
Answer: The IC50 was 23.3 µM.

Question: What about the Activity [3] of the same molecule?
Answer: Its Activity is “inactive”.

Question: For `c1cc(C2=N[C@H]3c4ccccc4C[C@H]3O2)nc(C2=N[C@H]3c4ccccc4C[C@H]3O2)c1`, which inhibition [4] is on record?
Answer: Its inhibition is “inactive”.

Question: For `CN1/C(=C\C=C2/CCC(/C=C/C3=[N+](C)c4ccccc4C3(C)C)=C2Cl)C(C)(C)c2ccccc21`, which inhibition [1] is on record?
Answer: Its inhibition is “inactive”.

Question: With `O=C1OC2(c3ccc(O)cc3Oc3cc(O)ccc32)c2ccc(N3C(=O)C=CC3=O)cc21` as the molecule, how does the inhibition [5] read?
Answer: The inhibition was “inactive”.

Question: With `O=C(N[C@@H](Cc1ccc(O)cc1)C(=O)O)OCC1c2ccccc2-c2ccccc21` as the molecule, how does the inhibition [5] read?
Answer: Its inhibition is “inactive”.

Question: Which results are given for `O=C(N[C@H](Cc1ccc2ccccc2n1)C(=O)O)OCC1c2ccccc2-c2ccccc21`?
Answer: IC50 (Chaperone SurA [2]): 57 µM; Activity [3]: inactive; IC50 (Chaperone SurA [6]): 37.4 µM

Question: For `C[C@H](NC(=O)OCC1c2ccccc2-c2ccccc21)C(=O)O`, which inhibition [5] is on record?
Answer: The inhibition was “inactive”.

Question: For `O=C(O)CCNC(=O)OCC1c2ccccc2-c2ccccc21`, which inhibition [5] is on record?
Answer: The inhibition was “inactive”.

Question: For `N[C@@H](Cc1cnc[nH]1)C(=O)NCC(=O)NCC(=O)O` (H-His-Gly-Gly-OH), which inhibition [7] is on record?
Answer: Its inhibition is “inactive”.

Question: For `CC[C@H](C)[C@H](NC(=O)OCC1c2ccccc2-c2ccccc21)C(=O)O`, which inhibition [5] is on record?
Answer: The inhibition was “inactive”.

Question: What does the source list for `O=C(N[C@@H](Cc1ccccc1)C(=O)O)OCC1c2ccccc2-c2ccccc21`?
Answer: IC50 (Chaperone SurA [2]): 152 µM; Activity [3]: inactive

Question: With H-KQAGNV-OH as the molecule, how does the inhibition [7] read?
Answer: Its inhibition is “inactive”.

Question: With `CC[C@H](C)[C@H](NC(=O)[C@H](Cc1ccc(O)cc1)NC(=O)[C@H](CCC(=O)O)NC(=O)[C@@H](N)Cc1c[nH]c2ccccc12)C(=O)N1CCC[C@H]1C(=O)N[C@@H](CC(N)=O)C(=O)N[C@H](C(=O)O)C(C)C` as the molecule, how does the IC50 (Chaperone SurA [2]) read?
Answer: Its IC50 is 2.66 µM.

Question: With `O=C1OC2(c3ccc(O)cc3Oc3cc(O)ccc32)c2ccccc21` as the molecule, how does the Activity [8] read?
Answer: The Activity was “Active”.
